Entries after “also recorded” stand apart in the source; their conditions may differ.

In assay [1] the target is T1, PPIA (Homo sapiens, UniProt P62937).
T1 construct: His-tag (cleaved yes); made in house; host or cells: Escherichia coli BL21(DE3)
Put plainly: NMR titration of 15N-labeled PPIA with dipeptide repeat polymers (1H-15N HSQC). The format is binding. Particulars: for Arg55 csp / Arg55 I/I0 (titration, SI Fig 2b): 40 µM 15N-PPIA; for Arg55 csp / I/I0 of the HSQC cross-peak of PPIA residue 55 (SI Fig 2a) / Arg55 I/I0 (titration, SI Fig 2b): pH 7.4, 298 K; for I/I0 of the HSQC cross-peak of PPIA residue 55 (SI Fig 2a): eightfold excess of peptide (320 µM) over 40 µM 15N-PPIA; for binding to PPIA judged from NMR signals: eightfold excess of peptide over PPIA, 1H-15N HSQC.
Description: Titration of ^15N-labeled PPIA with dipeptide repeat polymers (PR20, GR20, GP20, AP20, PR10, PR5, and PR2) were carried out in 25 mM HEPES buffer with 100 mM NaCl, 2 mM DTT, 0.01% NaN3, and 10% D20 at pH 7.4. For 40 µM protein, the ligand concentrations were increased from 0 to 320 µM in five steps. For the PPIA/GP20 and PPIA/AP20 titrations, the concentration of the repeat polymer was further increased up to 3200 µM. Two-dimensional ^15N-^1H HSQC spectra[41] were acquired at 298 K for each PPIA/repeat polymer ratio.
Kd calculations for the interactions of PPIA with PR repeats (PR5, PR10, and PR20) were made from the dipeptide repeat polymer-induced variations in PPIA cross-peak intensities, using the equation for slow exchange regime interactions:1 1−I/I0=Imax(Kd+P+x)−Kd+P+x^2−4×P×x/2P where I is the intensity of PPIA peaks in the presence of increasing ligand concentrations, I0 is the intensity of free protein, P is the total concentration of protein, x is the concentration of ligand, and Kd is the dissociation constant.
The error in 1−(I/I0) is taken to be the error in the experimental quantity of I/I0 and has been calculated from the noise in HSQC spectra according to2 σI/I0=I/I0σI0/I0^2+σ(I)/I^2 where σ(I/Io) is the error in I/I0, σ(Io) and σ(I) are the noise (RMS value of background noise from various regions) in the HSQC spectrum of PPIA alone and that of PPIA in the presence of ligand, respectively.
In case of the PPIA/GP20- and PPIA/AP20 interactions, the Kd value was calculated from the equation for fast exchange interactions using chemical shift perturbations (CSP) according to3 CSP=CSPmax(Kd+P+x)−(Kd+P+x)^2−4×P×x/2P where4 CSP=(δH)^2+δN/6.5^2
Imax and CSPmax were treated as independent free fit parameters for the residues. The error value in the Kd is the standard error of fitting.

The next assay deals with T2, RNaseT1 (Aspergillus oryzae, UniProt P00651).
T2 construct: purchased Thermo Fischer
T2 sequence (P00651 27-130): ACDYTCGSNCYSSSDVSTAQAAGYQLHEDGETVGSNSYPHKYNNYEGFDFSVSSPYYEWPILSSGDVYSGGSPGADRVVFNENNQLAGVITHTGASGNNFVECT
Description: Refolding of RNaseT1 without PPIA (self-folding control with PR20). The format is biochemical. Particulars: for exponential folding rate constant k of RNaseT1, no PPIA: Rnase T1:PR20=1:175, no CypA, same conditions. Here is the method: (§1) RNaseT1 (purchased from Thermo Fischer) was unfolded by incubating in 6.9 M urea at 10 °C for 2 h in 100 mM Tris-HCl buffer at pH 8. Refolding of RNaseT1 was initiated by diluting it 35 times with same buffer such that the final concentration of RNaseT1 was 2.27 µM and urea 0.197 M. Tryptophan fluorescence emission was measured at 320 nm (excitation wavelength = 280 nm) during refolding for 1 h on a Cary Eclipse Fluorescence Spectrophotometer at 10 °C. In experiments with PR20, PPIA, or both, they were added to the dilution buffer and incubated at 10 °C for 2 h prior to mixing. Data were normalized and averaged for graphical representation. The exponential constants, k, for the increasing fluorescence intensities were obtained from fitting a mono-exponential function to the experimental data in Graph Pad Prism.

In assay [2] the target is T1, PPIA. Description: PPIA-catalysed refolding of urea-unfolded RNaseT1 (tryptophan fluorescence). It is filed as biochemical. On the procedure:
as §1

In assay [3] the target is PPIA. Particulars: read-out: binding affinity to the enzyme; cited from earlier work.
Assay [4] deals with T3, prolyl isomerase PPIA (human, UniProt P62937 2-164).
T3 construct: human PPIA (peptidyl-prolyl cis-trans isomerase A, cyclophilin A); gene cloned into a modified pET28a vector; 15N-labeled for the NMR titrations, unlabeled for ITC, crystallography and folding assays; source: E. coli BL21(DE3), purified (Ni-NTA, TEV cleavage, Superdex 75); 15N-labeled in M9 minimal media for NMR
Put plainly: NMR titration; 40 µM 15N-labeled PPIA titrated with repeat polymer from 0 to 320 µM in five steps; 1H-15N HSQC at 298 K; 25 mM HEPES, 100 mM NaCl, 2 mM DTT, pH 7.4; Kd from the attenuation of the cross-peak of Arg55 (equation for slow exchange). Particulars: both partners purified.

Assay [5] concerns the target T3, prolyl isomerase PPIA. Put plainly: NMR titration; 40 µM 15N-labeled PPIA titrated with GP20 or AP20 up to 3200 µM; 1H-15N HSQC at 298 K; 25 mM HEPES, 100 mM NaCl, 2 mM DTT, pH 7.4; Kd from chemical shift perturbations (equation for fast exchange). Conditions: both partners purified.
Assay [6] deals with T3, prolyl isomerase PPIA. Description: ITC; 44 µM PPIA in the cell titrated with 650 µM PR20 in the syringe; 10 °C; 25 mM HEPES, 100 mM NaCl, 1 mM TCEP, pH 7.4; number of binding sites fixed to one. Conditions: both partners purified. (Isothermal titration calorimetry measures the heat released or taken up as one component is titrated into another.)

T3 sequence (P62937 2-164): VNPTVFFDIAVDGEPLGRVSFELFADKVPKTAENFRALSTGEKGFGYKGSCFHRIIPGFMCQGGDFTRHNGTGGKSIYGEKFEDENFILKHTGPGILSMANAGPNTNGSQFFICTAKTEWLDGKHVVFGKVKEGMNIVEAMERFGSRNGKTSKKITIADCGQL
T1 sequence (P62937 whole entry): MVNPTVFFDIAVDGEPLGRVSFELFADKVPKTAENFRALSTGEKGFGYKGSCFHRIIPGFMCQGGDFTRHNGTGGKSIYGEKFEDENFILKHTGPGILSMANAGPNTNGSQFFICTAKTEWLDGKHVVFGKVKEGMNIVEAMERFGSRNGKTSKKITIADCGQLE

In the case of “Ac-APAPAPAPAPAPAPAPAPAPAPAPAPAPAPAPAPAPAPAP-NH2 [AP20]”, the Arg55 csp amounted to 0.009725 on PPIA [1] (peptide conc. 32 uM); 0.03975 at PPIA [1] (peptide conc. 160 uM); 0.06372 on PPIA [1] (peptide conc. 320 uM); 0.09595 on PPIA [1] (peptide conc. 640 uM); 0.1279 on PPIA [1] (peptide conc. 1280 uM); 0.1597 on PPIA [1] (peptide conc. 3200 uM).

As for “Ac-GPGPGPGPGPGPGPGPGPGPGPGPGPGPGPGPGPGPGPGP-NH2 [GP20]”, the Arg55 csp turned out to be 0.002383 at PPIA [1] (peptide conc. 32 uM); 0.006761 at PPIA [1] (peptide conc. 96 uM); 0.01147 on PPIA [1] (peptide conc. 160 uM); 0.01968 at PPIA [1] (peptide conc. 320 uM); 0.034 at PPIA [1] (peptide conc. 640 uM); 0.04768 at PPIA [1] (peptide conc. 1280 uM). The Arg55 csp amounted to 0.06404 at PPIA [1] (peptide conc. 2560 uM) and 0.07024 at PPIA [1] (peptide conc. 3200 uM).

As for Ac-PRPRPRPRPR-NH2 [PR5], at PPIA [1], the Kd stood at 48.5 µM and the “I/I0 of the HSQC cross-peak of PPIA residue 55 (SI Fig 2a)” value came to 0.1037.

Take Ac-PRPRPRPRPRPRPRPRPRPR-NH2 [PR10]: on PPIA [1], the Kd amounted to 27.1 µM and the “I/I0 of the HSQC cross-peak of PPIA residue 55 (SI Fig 2a)” value was determined as 0.1506.

For the molecule “Ac-PRPRPRPRPRPRPRPRPRPRPRPRPRPRPRPRPRPRPRPR-NH2 [PR20]”, at PPIA [1], the “I/I0 of the HSQC cross-peak of PPIA residue 55 (SI Fig 2a)” value was -0.02438. Further, the “Arg55 I/I0 (titration, SI Fig 2b)” value is recorded as 0.211 at PPIA [1] (ligand conc 9.6 uM); 0.472 on PPIA [1] (ligand conc 32 uM); 0.746 at PPIA [1] (ligand conc 96 uM); 0.931 at PPIA [1] (ligand conc 160 uM); 1.02 at PPIA [1] (ligand conc 320 uM). Also, the “exponential folding rate constant k of RNaseT1, no PPIA” value on RNaseT1 (independent experiment 2 of 3) and on RNaseT1 (independent experiment 3 of 3) was 0.1365 each time. The “refolding kinetics of RNaseT1 in the presence of PR20, no PPIA” value on RNaseT1 (large excess of PR20, 10 °C, pH 8) is given as “unchanged”. Also, the “exponential folding rate constant k of RNaseT1” value is reported as 0.2834 on PPIA [2] (Rnase T1:CypA:PR20=1:0.033:7, 2.27 µM RNaseT1, 100 mM Tris-HCl pH 8, 10 °C, fluorescence 320 nm, mono-exponential fit, independent experiment 1 of 3); 0.2936 on PPIA [2] (Rnase T1:CypA:PR20=1:0.033:7, same conditions, independent experiment 2 of 3); 0.3078 on PPIA [2] (Rnase T1:CypA:PR20=1:0.033:7, same conditions, independent experiment 3 of 3); 0.2235 at PPIA [2] (Rnase T1:CypA:PR20=1:0.033:20, 2.27 µM RNaseT1, pH 8, 10 °C, mono-exponential fit, independent experiment 1 of 3); 0.3061 on PPIA [2] (Rnase T1:CypA:PR20=1:0.033:20, same conditions, independent experiment 2 of 3); 0.2847 on PPIA [2] (Rnase T1:CypA:PR20=1:0.033:20, same conditions, independent experiment 3 of 3). Besides, the “exponential folding rate constant k of RNaseT1” value at PPIA [2] (Rnase T1:CypA:PR20=1:0.033:46, 2.27 µM RNaseT1, pH 8, 10 °C, mono-exponential fit, independent experiment 1 of 3) is 0.2129; at PPIA [2] (Rnase T1:CypA:PR20=1:0.033:46, same conditions, independent experiment 2 of 3), 0.2303; on PPIA [2] (Rnase T1:CypA:PR20=1:0.033:46, same conditions, independent experiment 3 of 3) it was 0.2811; at PPIA [2] (Rnase T1:CypA:PR20=1:0.033:175, 2.27 µM RNaseT1, pH 8, 10 °C, mono-exponential fit, independent experiment 1 of 3) it was 0.1927; on PPIA [2] (Rnase T1:CypA:PR20=1:0.033:175, same conditions, independent experiment 2 of 3), 0.1913; at PPIA [2] (Rnase T1:CypA:PR20=1:0.033:175, same conditions, independent experiment 3 of 3), 0.202. For the same molecule, on PPIA [2] (increasing PR20: 7, 20, 46, 175 times excess over RNaseT1), the “effect on the catalyzing effect of PPIA on RNaseT1 folding” value is listed as “inhibited the catalyzing effect of PPIA in a dose-dependent manner”.

On to “GR20: 20-dipeptide glycine/arginine repeat polymer, acetylated and amidated termini”, for which the “binding to PPIA judged from NMR signals” value with PPIA [1] is “does not bind to PPIA”. For the same molecule, the “Arg55 I/I0 (titration, SI Fig 2b)” value in the assay with PPIA [1] (ligand conc 9.6 uM) is reported as 0.0912; with PPIA [1] (ligand conc 32 uM), 0.0182; with PPIA [1] (ligand conc 96 uM) it was -0.00762; with PPIA [1] (ligand conc 160 uM) it was 0.124; with PPIA [1] (ligand conc 320 uM) it was -0.0665.

Consider “PR2: two PR dipeptides, the four-residue peptide, acetylated and amidated termini (Ac-PRPR-NH2)”, for which, in the assay with PPIA [1], the “I/I0 of the HSQC cross-peak of PPIA residue 55 (SI Fig 2a)” value came to 0.9376 and the “binding to PPIA judged from NMR signals” value is recorded as “does not efficiently bind; also recorded: abrogated the binding to PPIA”.

As to cyclosporin A, at PPIA [3], the Kd is 0.013 ± 0.004 µM.

B1: PR repeat polymer with five PR dipeptides (PR5) (peptide)
peptide: Ac-PRPRPRPRPR-NH2
notes: source: synthetic peptide (solid-phase peptide synthesis)
B1: in the assay with prolyl isomerase PPIA [4], the Kd was 49 µM.

B2: dipeptide repeat polymer AP20 (peptide)
peptide: Ac-APAPAPAPAPAPAPAPAPAPAPAPAPAPAPAPAPAPAPAP-NH2
notes: also called alanine/proline repeat polymer; source: synthetic peptide (solid-phase peptide synthesis)
With B2, in the assay with prolyl isomerase PPIA [5], the Kd is 597 µM.

B3: dipeptide repeat polymer GP20 (peptide)
peptide: Ac-GPGPGPGPGPGPGPGPGPGPGPGPGPGPGPGPGPGPGPGP-NH2
notes: also called glycine/proline repeat polymer; source: synthetic peptide (solid-phase peptide synthesis)
On to B3, for which the Kd in the assay with prolyl isomerase PPIA [5] amounted to 1190 µM.

B4: PR repeat polymer with ten PR dipeptides (PR10) (peptide)
peptide: Ac-PRPRPRPRPRPRPRPRPRPR-NH2
notes: as for B1
As to B4, the Kd with prolyl isomerase PPIA [4] was 27 µM.

B5: PR repeat polymer with 20 repeats (PR20) (peptide)
peptide: Ac-PRPRPRPRPRPRPRPRPRPRPRPRPRPRPRPRPRPRPRPR-NH2
notes: dipeptide repeat polymer translated from the C9orf72 hexanucleotide repeat expansion; Only eight residues of the polymer could be built in the asymmetric unit of PDB 7ABT; also called 20-dipeptide polymer PR20; 20-repeat PR polymer; source: synthetic peptide (solid-phase peptide synthesis)
For B5, the Kd with prolyl isomerase PPIA [4] is 23 µM; with prolyl isomerase PPIA [6], roughly 50 µM.

Source of the values: article PMC8184751, “Proline/arginine dipeptide repeat polymers derail protein folding in amyotrophic lateral sclerosis” (Nature Communications, 2021).
